Measured values reported in BigSolDB 2.1.

Clc1ccccc1C(c1ccccc1)(c1ccccc1)n1ccnc1
Details	solubility (mole fraction)
in ethyl acetate, 283.11 K	0.00714
in ethyl acetate, 288.17 K	0.00838
in ethyl acetate, 293.24 K	0.01
in ethyl acetate, 298.15 K	0.0119
in ethyl acetate, 303.14 K	0.0142
in ethyl acetate, 308.18 K	0.0168
in ethyl acetate, 313.12 K	0.0198
in ethyl acetate, 318.16 K	0.0233
in ethyl acetate, 323.19 K	0.0275
in isobutanol, 283.09 K	0.0157
in isobutanol, 288.15 K	0.0202
in isobutanol, 293.11 K	0.0251
in isobutanol, 298.17 K	0.0311
in isobutanol, 303.16 K	0.0385
in isobutanol, 308.21 K	0.0477
in isobutanol, 313.15 K	0.0589
in isobutanol, 318.14 K	0.0722
in isobutanol, 323.18 K	0.0873
in isopentanol, 283.13 K	0.0157
in isopentanol, 288.18 K	0.0193
in isopentanol, 293.14 K	0.0239
in isopentanol, 298.16 K	0.0296
in isopentanol, 303.13 K	0.0366
in isopentanol, 308.18 K	0.045
in isopentanol, 313.12 K	0.0548
in isopentanol, 318.15 K	0.0668
in isopentanol, 323.19 K	0.081
in isopropanol, 283.1 K	0.00571
in isopropanol, 288.15 K	0.00723
in isopropanol, 293.13 K	0.00916
in isopropanol, 298.16 K	0.0115
in isopropanol, 303.12 K	0.0145
in isopropanol, 308.15 K	0.0185
in isopropanol, 313.19 K	0.0235
in isopropanol, 318.16 K	0.03
in isopropanol, 323.15 K	0.0384
in isopropyl acetate, 283.1 K	0.00518
in isopropyl acetate, 288.16 K	0.00615
in isopropyl acetate, 293.2 K	0.0073
in isopropyl acetate, 298.19 K	0.00868
in isopropyl acetate, 303.15 K	0.0102
in isopropyl acetate, 308.12 K	0.0121
in isopropyl acetate, 313.15 K	0.0144
in isopropyl acetate, 318.19 K	0.0171
in isopropyl acetate, 323.17 K	0.0203
in methyl acetate, 283.15 K	0.00661
in methyl acetate, 288.17 K	0.00792
in methyl acetate, 293.1 K	0.00953
in methyl acetate, 298.21 K	0.0114
in methyl acetate, 303.15 K	0.0137
in methyl acetate, 308.16 K	0.0164
in methyl acetate, 313.12 K	0.0196
in methyl acetate, 318.14 K	0.0235
in methyl acetate, 323.18 K	0.0281
in methyl propionate, 283.13 K	0.00984
in methyl propionate, 288.17 K	0.0117
in methyl propionate, 293.21 K	0.0138
in methyl propionate, 298.15 K	0.0163
in methyl propionate, 303.14 K	0.0192
in methyl propionate, 308.17 K	0.0227
in methyl propionate, 313.08 K	0.0268
in methyl propionate, 318.19 K	0.0316
in methyl propionate, 323.15 K	0.0373
in n-butanol, 283.16 K	0.0151
in n-butanol, 288.11 K	0.0188
in n-butanol, 293.15 K	0.0235
in n-butanol, 298.2 K	0.0289
in n-butanol, 303.14 K	0.0356
in n-butanol, 308.18 K	0.0439
in n-butanol, 313.15 K	0.0538
in n-butanol, 318.17 K	0.0659
in n-butanol, 323.16 K	0.0798
in n-butyl acetate, 283.16 K	0.00743
in n-butyl acetate, 288.19 K	0.00886
in n-butyl acetate, 293.14 K	0.0104
in n-butyl acetate, 298.16 K	0.0124
in n-butyl acetate, 303.11 K	0.0148
in n-butyl acetate, 308.09 K	0.0176
in n-butyl acetate, 313.25 K	0.0211
in n-butyl acetate, 318.15 K	0.0251
in n-butyl acetate, 323.13 K	0.0299
in n-heptanol, 283.17 K	0.0108
in n-heptanol, 288.14 K	0.0151
in n-heptanol, 293.18 K	0.0198
in n-heptanol, 298.16 K	0.0251
in n-heptanol, 303.1 K	0.0316
in n-heptanol, 308.15 K	0.039
in n-heptanol, 313.19 K	0.0474
in n-heptanol, 318.08 K	0.0578
in n-heptanol, 323.16 K	0.0695
in n-hexanol, 283.08 K	0.0145
in n-hexanol, 288.13 K	0.0185
in n-hexanol, 293.16 K	0.0231
in n-hexanol, 298.15 K	0.0287
in n-hexanol, 303.19 K	0.0356
in n-hexanol, 308.14 K	0.0432
in n-hexanol, 313.1 K	0.053
in n-hexanol, 318.21 K	0.064
in n-hexanol, 323.17 K	0.0769
in n-octanol, 283.06 K	0.0118
in n-octanol, 288.15 K	0.0159
in n-octanol, 293.13 K	0.0203
in n-octanol, 298.19 K	0.0247
in n-octanol, 303.11 K	0.0301
in n-octanol, 308.22 K	0.0366
in n-octanol, 313.18 K	0.0453
in n-octanol, 318.09 K	0.0553
in n-octanol, 323.17 K	0.0661
in n-pentanol, 283.19 K	0.0169
in n-pentanol, 288.15 K	0.0213
in n-pentanol, 293.13 K	0.0269
in n-pentanol, 298.1 K	0.0325
in n-pentanol, 303.12 K	0.04
in n-pentanol, 308.15 K	0.0486
in n-pentanol, 313.07 K	0.0587
in n-pentanol, 318.14 K	0.0707
in n-pentanol, 323.17 K	0.085
in n-propanol, 283.15 K	0.0144
in n-propanol, 288.12 K	0.0172
in n-propanol, 293.14 K	0.0213
in n-propanol, 298.18 K	0.0263
in n-propanol, 303.16 K	0.0327
in n-propanol, 308.15 K	0.0405
in n-propanol, 313.11 K	0.05
in n-propanol, 318.17 K	0.0618
in n-propanol, 323.18 K	0.0761
in n-propyl acetate, 283.15 K	0.008
in n-propyl acetate, 288.14 K	0.0095
in n-propyl acetate, 293.19 K	0.0112
in n-propyl acetate, 298.17 K	0.0132
in n-propyl acetate, 303.16 K	0.0156
in n-propyl acetate, 308.12 K	0.0185
in n-propyl acetate, 313.21 K	0.0217
in n-propyl acetate, 318.15 K	0.0257
in n-propyl acetate, 323.13 K	0.0303
in sec-butanol, 283.15 K	0.0101
in sec-butanol, 288.16 K	0.013
in sec-butanol, 293.21 K	0.0165
in sec-butanol, 298.18 K	0.021
in sec-butanol, 303.13 K	0.0267
in sec-butanol, 308.15 K	0.0338
in sec-butanol, 313.19 K	0.0425
in sec-butanol, 318.11 K	0.0532
in sec-butanol, 323.14 K	0.0657
